In PMC2654417 (Combinatorial chemistry & high throughput screening, 2008):
Read-outs that look alike come from different tables or passages of the source.

Target: T1, glucocorticoid receptor (GR) (Homo sapiens, UniProt P04150)
T1 sequence (P04150 1-777): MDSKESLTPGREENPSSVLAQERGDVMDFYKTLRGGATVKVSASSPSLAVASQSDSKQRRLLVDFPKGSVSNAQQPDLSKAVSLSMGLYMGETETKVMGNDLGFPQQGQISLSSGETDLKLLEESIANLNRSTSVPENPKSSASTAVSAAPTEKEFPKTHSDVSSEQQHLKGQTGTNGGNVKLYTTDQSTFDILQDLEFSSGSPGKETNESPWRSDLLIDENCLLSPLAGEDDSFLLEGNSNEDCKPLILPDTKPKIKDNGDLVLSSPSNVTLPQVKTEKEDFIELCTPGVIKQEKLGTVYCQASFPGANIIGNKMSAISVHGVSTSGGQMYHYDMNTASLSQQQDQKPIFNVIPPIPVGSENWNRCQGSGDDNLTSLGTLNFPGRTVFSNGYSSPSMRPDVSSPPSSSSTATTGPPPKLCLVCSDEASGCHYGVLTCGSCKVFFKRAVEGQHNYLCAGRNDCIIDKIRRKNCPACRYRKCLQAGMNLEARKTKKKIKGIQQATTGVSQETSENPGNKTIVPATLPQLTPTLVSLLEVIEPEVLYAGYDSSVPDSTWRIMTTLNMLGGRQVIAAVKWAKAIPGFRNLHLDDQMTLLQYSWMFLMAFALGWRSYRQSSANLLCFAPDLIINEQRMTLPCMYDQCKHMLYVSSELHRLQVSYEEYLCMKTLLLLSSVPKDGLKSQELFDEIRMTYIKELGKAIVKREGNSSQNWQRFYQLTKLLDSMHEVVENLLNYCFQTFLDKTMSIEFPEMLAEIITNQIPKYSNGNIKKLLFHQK
Test: GR-EFC nuclear translocation assay
Assay type: cell-based
Conditions: for qHTS Hill Slope: Hill slope of the qHTS curve fit; for qHTS Max Activity: maximal activity of the qHTS curve, inactive threshold […] (3σ); for log qEC50: log10 of qEC50 in M, printed as negative values; for EC50: read-out: qEC50

[1] = class 4 values are fit defaults
[2] = qHTS curve fit, class 4 values are fit defaults

For C[C@H]1C[C@@H]2[C@H]([C@@H](O)C[C@@]3(C)[C@H]2CC[C@]3(O)C(=O)CO)[C@@]2(C)C=CC(=O)C=C12 [NCGC00016330-01], the “qHTS Hill Slope” value was 0.98 and the “qHTS Max Activity” value was 63.5.

For C[C@@]12CCC(=O)C=C1CC[C@@H]1[C@@H]2[C@H](O)C[C@]2(C)[C@@H]1CC[C@]2(O)C(=O)CO [NCGC00015507-01], the “qHTS Hill Slope” value was 0.55 and the “qHTS Max Activity” value was 123.7.

For CC(=O)O[C@]1(C(C)=O)CC[C@H]2[C@@H]3C=C(C)C4=CC(=O)CC[C@]4(C)[C@H]3CC[C@@]21C [NCGC00016516-01], the “qHTS Hill Slope” value was 0.49, the “log qEC50” value [1] was −7.254 and the “qHTS Max Activity” value was 47.2. For the same compound, the EC50 [2] was 0.0557 µM.

C#C[C@@]1(O)CC[C@@H]2[C@@H]3CCC4=CC(=O)CC[C@@H]4[C@H]3CC[C@]21C [NCGC00016303-01] was tested, and the “qHTS Curve Class” value was 4 (inactive, where activity was below 28.6% (3σ for the present assay)).

CC(=O)O[C@H]1C[C@H]2CC[C@@H]3[C@H]4C[C@@H]([N+]5(C)CCCCC5)[C@@H](OC(C)=O)[C@]4(C)CC[C@@H]3[C@@]2(C)C[C@@H]1[N+]1(C)CCCCC1 [NCGC00024736-01] was tested, and the EC50 [2] was greater than 9 µM.

Compound C[C@@]12CC(=O)[C@H]3[C@@H](CCC4=CC(=O)CC[C@]43C)[C@H]1CCC2=O [NCGC00016440-01] has an EC50 [2] greater than 9 µM.

With COc1cc2c(cc1O)CC[C@@H]1[C@@H]2CC[C@@]2(C)[C@H](O)CC[C@H]12 [NCGC00015690-01] the EC50 [2] was greater than 9 µM.

With C=C(C)[C@H]1CC[C@]2(CO)CC[C@]3(C)[C@@H](CC[C@H]4[C@@]5(C)CC[C@@H](O)C(C)(C)[C@@H]5CC[C@@]43C)[C@H]12 [NCGC00016450-01] the “qHTS Curve Class” value was 4 (inactive, where activity was below 28.6% (3σ for the present assay)) and the EC50 was greater than 9 µM.

For CC(=O)OCC(=O)[C@H]1CC[C@H]2[C@@H]3CC[C@H]4C[C@H](O)CC[C@]4(C)[C@H]3C(=O)C[C@]12C [NCGC00016783-01], the EC50 [2] was greater than 9 µM.

In the case of C[C@@]12C=CC(=O)C=C1CC[C@@H]1C2=CC[C@]2(C)[C@@H]1CC[C@H]2C(=O)CN1CCN(c2cc(N3CCCC3)nc(N3CCCC3)n2)CC1 [NCGC00016076-01], the “qHTS Curve Class” value is reported as 4 (inactive, where activity was below 28.6% (3σ for the present assay)) and the EC50 is reported as greater than 9 µM.

In the case of C[C@@]12CCC(=O)C=C1CC[C@@H]1[C@@H]2[C@H](O)C[C@]2(C)[C@@H]1CC[C@]2(O)C(=O)CO [NCGC00016215-01], the “qHTS Hill Slope” value is reported as 0.70 and the “qHTS Max Activity” value is reported as 60.7.

For C[C@H]1[C@H](C)CC[C@@]2(C(=O)O)CC[C@]3(C)C(=CC[C@@H]4[C@@]5(C)CC[C@H](O)C(C)(C)[C@@H]5CC[C@@]43C)[C@@H]12 [NCGC00017223-01], the “qHTS Curve Class” value was 4 (inactive, where activity was below 28.6% (3σ for the present assay)) and the EC50 was greater than 9 µM.

With CC(=O)O[C@H]1CC[C@@]2(C)C(=CC[C@@H]3[C@@H]2CC[C@]2(C)C(=O)CC[C@@H]32)C1 [NCGC00016544-01] the EC50 [2] was greater than 9 µM.

In the case of CC(=O)O[C@H]1C[C@@]2(C)[C@@H](C[C@@H](O)[C@H]3[C@@]4(C)CC[C@@H](O)[C@@H](C)[C@@H]4CC[C@@]32C)/C1=C(\CCC=C(C)C)C(=O)[O-].[Na+] [NCGC00017030-01], the “qHTS Curve Class” value is reported as 4 (inactive, where activity was below 28.6% (3σ for the present assay)) and the EC50 is reported as greater than 9 µM.

C[C@@]12CC[C@H](O)C[C@@H]1CC[C@H]1[C@H]2C[C@@H](O)[C@]2(C)[C@@H](C3=CC(=O)OC3)CC[C@@]12O [NCGC00017309-01] gave an EC50 [2] greater than 9 µM.

For C#C[C@@]1(O)CC[C@@H]2[C@@H]3CCC4=CC(=O)CC[C@@H]4[C@H]3CC[C@]21CC [NCGC00016540-01], the “qHTS Curve Class” value was 4 (inactive, where activity was below 28.6% (3σ for the present assay)) and the EC50 was greater than 9 µM.

With C[C@@]12CC[C@@H]3c4ccc(O)cc4CC[C@H]3[C@H]1C[C@@H](O)[C@H]2O [NCGC00016217-01] the EC50 [2] was greater than 9 µM.

With CC(=O)OCC(=O)[C@@]1(O)CC[C@@H]2[C@H]3CCC4=CC(=O)CC[C@]4(C)[C@]3(F)[C@@H](O)C[C@@]21C [NCGC00016476-01] the “qHTS Hill Slope” value was 0.75 and the “qHTS Max Activity” value was 74.0.

For CC(=O)O[C@H]1CC[C@@]2(C)[C@@H](CC[C@@]3(C)[C@H]2C(=O)C=C2[C@H]4C[C@](C)(C(=O)OCCN5CCCCC5)CC[C@]4(C)CC[C@@]23C)C1(C)C [NCGC00017165-01], the “qHTS Curve Class” value was 4 (inactive, where activity was below 28.6% (3σ for the present assay)) and the EC50 was greater than 9 µM.

Compound C[C@@]12CC[C@H]3[C@@H](CC[C@@H]4C[C@H](O)CC[C@]43C)[C@H]1CC[C@H]2O [NCGC00015090-01] has an EC50 [2] greater than 9 µM.

Work on C[C@@H]1[C@H]2CC[C@@H]3[C@@H]4CC=C5C[C@@H](N(C)C)CC[C@]5(C)[C@@H]4CC[C@@]32CN1C [NCGC00016502-01] yielded an EC50 [2] greater than 9 µM.

For CCC(=O)[C@@]1(C)[C@H](C)C[C@H]2[C@@H]3CCC4=CC(=O)C=C[C@]4(C)[C@H]3[C@@H](O)C[C@@]21C [NCGC00016856-01], the “qHTS Hill Slope” value was 0.52, the “log qEC50” value [1] was −8.507 and the “qHTS Max Activity” value was 77.5. For the same compound, the EC50 [2] was 0.00311 µM.

With CC1(C)O[C@@H]2C[C@H]3[C@@H]4C[C@H](F)C5=CC(=O)CC[C@]5(C)[C@H]4[C@@H](O)C[C@]3(C)[C@]2(C(=O)CO)O1 [NCGC00016586-01] the “qHTS Hill Slope” value was 0.69, the “log qEC50” value [1] was −7.725 and the “qHTS Max Activity” value was 104.7. The EC50 [2] was 0.0188 µM.

For C[C@@H]1[C@H](C)CC[C@@]2(C(=O)O)CC[C@]3(C)C(=CC[C@H]4[C@@]5(C)CC[C@@H](O)C(C)(C)[C@@H]5CC[C@@]43C)[C@@H]12 [NCGC00016318-01], the “qHTS Curve Class” value was 4 (inactive, where activity was below 28.6% (3σ for the present assay)) and the EC50 was greater than 9 µM.

Compound C[C@H](CCC(=O)NCC(=O)O)[C@H]1CC[C@H]2[C@H]3[C@@H](C[C@@H](O)[C@]12C)[C@]1(C)CC[C@H](O)C[C@@H]1C[C@@H]3O [NCGC00016452-01] has an EC50 [2] greater than 9 µM.

C[C@H]1CC[C@]2(NC1)O[C@@H]1C[C@@H]3[C@@H]4CC=C5C[C@H](O)CC[C@@]5(C)[C@H]4CC[C@@]3(C)[C@H]1[C@@H]2C [NCGC00017170-01] was tested, and the EC50 [2] was greater than 9 µM.

C[C@@]12CC[C@H]3[C@@H](CC[C@]4(O)C[C@H](O)CC[C@@]34C=O)[C@]1(O)CC[C@@H]2C1=CC(=O)OC1 [NCGC00016295-01] showed an EC50 [2] greater than 9 µM.

For C[C@@]12CC[C@H](O)C[C@@H]1CC[C@H]1[C@H]2CC[C@@]2(C)[C@@H](C3=CC(=O)OC3)CC[C@]12O [NCGC00016406-01], the EC50 [2] was greater than 9 µM.

C[C@]12CC[C@@H]3c4ccc(O)cc4CC[C@H]3[C@@H]1CC[C@@H]2OC(=O)CCC1CCCC1 [NCGC00013034-01] showed an EC50 [2] greater than 9 µM.

C[C@@]12CC[C@H](O)C[C@@H]1CC[C@H]1[C@@H]2C[C@@H](O)[C@]2(C)[C@@H](C3=CC(=O)OC3)CC[C@]12O [NCGC00016591-01] was tested, and the EC50 [2] was greater than 9 µM.

C[C@]12CC[C@H]3c4ccc(OC[C@H]5CO5)cc4CC[C@H]3[C@H]1CC[C@@H]2O [NCGC00017797-01] gave an EC50 [2] greater than 9 µM.

COc1ccc2c(c1)CC[C@H]1[C@H]2CC[C@]2(C)[C@H](NCCCCCCN3C(=O)C=CC3=O)CC[C@@H]12 [NCGC00016078-01] showed an EC50 [2] greater than 9 µM.

In the case of C[C@@]12CCC(=O)C=C1CC[C@@H]1[C@@H]2[C@H](O)C[C@]2(C)[C@@H]1CC[C@]2(O)C(=O)COC(=O)CCC(=O)[O-].[Na+] [NCGC00016153-01], the “qHTS Hill Slope” value is reported as 0.62, the “log qEC50” value [1] is reported as −5.952 and the “qHTS Max Activity” value is reported as 100.0. For the same compound, the EC50 [2] was 1.12 µM.

CC1(C)[C@@H](O)CC[C@@]2(C)[C@H]1CC[C@]1(C)[C@H]2C(=O)C=C2[C@@H]3C[C@@](C)(C(=O)O)CC[C@]3(C)CC[C@@]21C [NCGC00017244-01] was tested, and the “qHTS Curve Class” value was 4 (inactive, where activity was below 28.6% (3σ for the present assay)) and the EC50 was greater than 9 µM.
